Ends that are not written are not given here.
What was measured:
Assay type in all cases: cell-based
delta2 opioid receptor = target: T1, delta2 opioid receptor (Mus musculus, UniProt P32300); test: Agonist effect at the delta2 opioid receptor (DOP), cell impedance
T1 construct: host or cells: unnamed cells 'bearing the delta2 opioid receptor'
Description: Frozen spinach leaves were thawed and disrupted in fine particles a blender. This juice was further treated with ultrasounds to disrupt cells and proteins were recovered by acidic precipitation. These proteins were then digested by several enzymes, including pepsin and papain. The hydrolysate was purified (ultrafiltration), fractionated and stored before testing. Meanwhile, synthetic peptides were ordered from a manufacturer. The peptides and the hydrolysates were tested on cells bearing the delta2 opioid receptor and cell impedance was measured to evaluate the binding activity of the tested compounds (Law and Loh, 1993).
The EC50 values (concentration producing a half-maximal specific response) and IC50 values (concentration causing a half-maximal inhibition of the control specific agonist response) were determined by non-linear regression analysis of the concentration-response curves generated with mean replicate values using Hill equation curve fitting (Y=D+[(A D)/(1+(C/C50)nH)], where Y=specific response, D=minimum specific response, A=maximum specific response, C=compound concentration, and C50=EC50 or IC50, and nH=slope factor).

[1] = system: reconstructed human epidermis (RHE); test: Protein expression (in situ immunolabeling) in RHE stimulated with cytokines; settings: 3 PPM peptide, % of level in non treated RHE
Description: In the present study, the effects of a peptide on the expression of 7 proteins were assessed on a reconstructed human epidermis (RHE) model stimulated or not with a mix of cytokines (IL-17+OSM+TNF-α).
More precisely, effects of compounds were evaluated on the protein expression of markers involved in: • tight junctions (Occludin), • […] (Corneosdesmosin) • keratinocyte differentiation (keratin 10, involucrin, calmodulin-like5), • and lipid synthesis (Acyl-CoA synthetase and sulfotransferase 2B).
Reconstructed human epidermis (RHE) of 11 days old were prepared according to a derived method described by Poumay et al. (2004). These RHE were cultivated at 37° C. and 5% of CO2 in a specific maintenance medium.
The RHE were treated with assay medium containing or not (control) the test compounds or the JAK inhibitor I at 10 μM and incubated for 24 hours. After pre-incubation, assay medium and treatments were renewed and epidermises were stimulated with a cytokine mix (OSM+IL-17+TNF-α*) at 3 ng/ml and incubated for additional 48 hours. All experimental conditions were performed in n=3. *Oncostatin M (OSM)+Interleukin 17 (IL-17)+ Tumor necrosis factor alpha (TNF-α)
At the end of incubation, the supernatants were collected and the RHE were washed in phosphate buffered saline solution (PBS) for in situ immunolabeling.
After incubation, the RHE were snap-frozen in liquid isopentane/N2 and stored at −80° C. The transversal sections were carried out using a microtome (5 μm thickness, one slide per RHE, several sections per slide).
The sections were fixed with an acetone/methanol mix and dried. After PBS-milk 5% saturation, the sections were incubated with the specific primary antibody solutions. […] The sections were washed and then observed under epifluorescence microscopy.
After incubation, RHE were rinsed and fixed with formaldehyde solution. Fixed tissues were dehydrated in multiple baths with increasing concentration of ethanol and then embedded in paraffin. The transversal sections were carried out using a microtome (5 μm thickness) and stored at room temperature.
The sections were deparaffinized then the antigenic sites were retrieved. The sections were washed and incubated with hydrogen peroxide. The sections, once washed, were incubated with the primary antibody (anti-Calmodulin-like 5 or anti-SULT2B1). […] After peroxidase-conjugated streptavidine and peroxidase substrate addition, nuclei were counter-stained with a solution of haematoxylin. The sections were washed, mounted in aqueous medium and observed under transmitted-light microscopy.
Sections were observed using a NIKON E400 microscope. Images were captured with a NIKON DS-Ri1 and processed with NIS-Elements 3.10 software (3 pictures per replicate). The image analysis was performed by measuring the fluorescence intensity using Image J software.
Results were expressed in % of the level of expression of each protein maker in non treated RHE.

human skin explants = test: Pro-pigmentation on human skin explants; settings: within 6 days, 0.3 and 3 PPM
Description: This study aims to explore the pro pigmenting activity of an ingredient (peptide YPLDLF, SEQ ID No 1) on human skin explants maintained in survival.
The activity of the product was evaluated by: • histological expertise of general morphology of the skin after Masson trichrome staining, • a visualization of melanin by a silver impregnation. • Immunostaining of Melan-A
Skin explants with a diameter of 10 mm were prepared from plastic surgery skin sample from a person. The explants were placed in survival in a specific growth medium at 37° C. in a humid atmosphere enriched with 5% CO2.
The peptide solutions (at 0.3 PPM or 3 PPM) were applied topically for 2 hours every day using a filter paper discs presoaked in 30 μl of each solution.
At D0, a T0 lot of the explants were removed and cut in half. One half was fixed in buffered formalin and the other half was frozen at −80° C. […]
The melanin was visualized by silver impregnation according to the technique of Masson Fontana variant. Labeled melanin has been evaluated by microscopic examination.
The expression of melanin in the basal layers, was quantified by image analysis using the software Cell-D.
The cell nuclei were colored with a propidium iodide. Labeled Melan-A has been evaluated by microscopic examination and counting of melanocytes Melan-A positive and the results expressed per centimeter of epidermis.

[2] = percent of control specific agonist response (DPDPE)

T1 sequence (P32300 whole entry): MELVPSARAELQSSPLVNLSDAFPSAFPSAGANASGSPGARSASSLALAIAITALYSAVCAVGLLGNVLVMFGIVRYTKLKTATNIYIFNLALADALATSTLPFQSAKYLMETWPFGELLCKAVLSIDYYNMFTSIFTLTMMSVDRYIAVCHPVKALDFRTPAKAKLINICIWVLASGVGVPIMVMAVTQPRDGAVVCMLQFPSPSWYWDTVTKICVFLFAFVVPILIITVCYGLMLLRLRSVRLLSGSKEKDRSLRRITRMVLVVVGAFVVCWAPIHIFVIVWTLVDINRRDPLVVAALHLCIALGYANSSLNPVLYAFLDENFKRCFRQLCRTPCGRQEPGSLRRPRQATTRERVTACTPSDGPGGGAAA

YPLDLF [YPLDLF]
EC50 (delta2 opioid receptor): 3.9 µM
A (Hill curve fit parameter) (delta2 opioid receptor; [2]): −8.3
D (Hill curve fit parameter) (delta2 opioid receptor; [2]): 100.0
Acyl-CoA synthetase protein expression level in RHE [1]: 65%
Calmodulin like 5 protein expression level in RHE [1]: 100%
Corneodesmosin protein expression level in RHE [1]: 84%
Involucrin protein expression level in RHE [1]: 99%
Keratin 10 protein expression level in RHE [1]: 104%
Occludin protein expression level in RHE [1]: 97%
Sulfotransferase 2B protein expression level in RHE [1]: 100%
production of pigment (melanin) in human skin (human skin explants): activate in a dose dependent manner

— patent publication US9107852B2, “Uses of agonists of delta opioid receptor in cosmetic and dermocosmetic field” (Induchem Holding AG, priority 2012, dated 2015)
